Values quoted from earlier work in patent publication US12091408B2, “Store overload-induced calcium release inhibitors and methods for producing and using the same” (UTI Limited Partnership, priority 2013, dated 2024).

What was measured:
[1] = test system: ventricular arrhythmias and sudden death; conditions: mice, reported; via enhanced FKBP12.6 binding to RyR2; cited from earlier work
β-adrenergic receptor = conditions: previously shown by the inventors; cited from earlier work

SMILES	suppression of ventricular arrhythmias and sudden death [1]	β-blockade (order of magnitude) (β-adrenergic receptor)
COc1ccc2c(c1)CN(C(=O)CCN1CCC(Cc3ccccc3)CC1)CCS2.Cl [Compound 102, JTV519]	suppress ventricular arrhythmias and sudden death in mice	–
COc1ccc2c(c1)CN(C)CCS2 [Compound 99, S107]	suppress ventricular arrhythmias and sudden death in mice	–
COc1ccccc1OCCNCC(O)COc1cccc2[nH]c3ccccc3c12 (stereo not drawn) [Compound 1, carvedilol]	–	nanomolar
